Measured values as given in patent US11131674B2, “Microarray compositions and methods of their use” (ADEPTRIX CORP., priority 2013, dated 2021).

How the values were obtained:
[1] = system: MCF-7 cell line cells; experiment: Whole cell MALDI TOF MS imaging of live cell microarray reacted with apoptosis-inducing compounds; type: cell-based, human; settings: MCF-7 cells, 24 hours; etoposide 1 mM, camptothecin 10 μM, andrographolide 100 μM, 500 μM and 1 mM; FIG. 39E
Procedure: The live cell microarray was fabricated as follows: a sterile 12-well silicone gasket was affixed to a top surface of a sterile APEX™ glass microwell plate, as schematically depicted in FIG. 15A and 1×DMEM cell culture medium supplemented with 10% FBS and 1% of Penicillin/Streptomycin was dispensed into each well of the fabricated 12-chamber cell culture device. Several hundred of MCF-7 cell line cells were seeded into each of the 12 wells and the cells were grown to […] density on the microwell plate within 48 hrs using a standard cell culture protocol. The fabricated live cell microarray thus comprised 12 reactive sites defined by the dimensions of the silicone gasket, each reactive site measuring approximately 7.5 mm×7.5 mm and containing approximately 5×10^5 live cells.
The live cell microarray fabricated as described in the previous Example was utilized to measure response of the MCF-7 cell line cells to several apoptosis-inducing compounds, which included etoposide, camptothecin and andrographolide. In addition, the live cell microarray was utilized to measure response of the MCF-7 cells to the same compound (andrographolide) provided in three different concentrations.
Stock solutions of the three compounds listed above were prepared in DMSO and stored at 4° C. or at −20° C. The compounds were diluted with the DMEM cell culture medium to the final concentrations of 1 mM (etoposide), 10 μM (camptothecin) and 100 μM, 500 μM and 1 mM (andrographolide) immediately before use. The original cell growth medium within the individual wells of the silicone gasket was removed by pipetting and replaced with approximately 250 μL of a cell growth medium supplemented with a specific compound. FIG. 39A schematically depicts a layout of the cell microarray. […]
The reacted cell microarray was measured by MALDI TOF MS in the linear mid-mass positive mode as described previously. […]

[2] = system: MCF-7 cell line cells; experiment: Cell counting (Trypan blue, automated cell counter) on composite microbead-microwell live cell microarray; settings: MCF-7 cells, 24 hours, cell growth medium supplemented with etoposide released from the ion exchange beads; Trypan blue
[3] = as above; settings: human, MCF-7 cells on a microbead-microwell array plate
[4] = system: MCF-7 cells; experiment: Difference whole cell mass spectrometry for detection of spectral changes due to apoptosis; type: cell-based, human; settings: 24 hrs incubation, FIG. 35
Procedure: The human breast cancer cell line MCF-7 cells were grown in Gibco® DMEM medium on a 6-well clear polystyrene cell culture plate (BD Falcon). The cells were grown according to the manufacturer's protocol to approximately 75% confluency. At this point several apoptosis-inducing compounds were added to the individual wells and the cells were further incubated for 24 hrs. Both live adherent cells and dead cells detached from the surface were collected from the individual wells of the cell culture plate and the cell viability count was performed on Countless® automated cell counter (Life Technologies) per manufacturer's protocol.
The cells for WCMS analysis were prepared as described in the previous examples. The cell concentration was approximately 1,000 cells per μL.
Whole cell MALDI TOF MS spectra were acquired from the control (untreated) and treated cell populations using instrument parameters described in the previous examples. […] The bottom spectrum represents a difference mass spectrum produced by subtracting the control spectrum from the Etoposide-treated spectrum.

[5] = system: MCF-7 cell line cells; experiment: Optical imaging of cell density and morphology on composite microbead-microwell live cell microarray; type: cell-based, human; settings: MCF-7 cells, 24 hours, optical microscope, FIG. 41A/41B
Excerpt: In this Example, the release of etoposide from the beads into the cell culture medium occurred primarily via diffusion mechanism, although other methods, such as photorelease of active compounds from individual beads may be also utilized due to the fact that the solid support used for the microarray fabrication is sufficiently transparent in the UV-visible range.
Optical imaging: the multi-well gasket was separated from the microwell array plate, the surface of the plate rinsed with 1×PBS buffer and the microwell plate was imaged using an optical microscope to determine the cell density and cell morphology. A representative image acquired from an area of the microwell plate, which contained the cells exposed to the drug-free DMEM medium, is shown in FIG. 41A. A representative image acquired from an area of the microwell plate, which contained the cells exposed to the etoposide-containing DMEM medium, is shown in FIG. 41B.

Structure (SMILES)	intensity of peaks in the 7,891-7,977 m/z spectral region compared to untreated cells [1]	live cells [2]	total cells [2]	viability at 24 h [3]	difference mass spectrum, treated minus control [4]	density of adherent cells, drug-free vs etoposide-containing DMEM medium [5]
C=C1CC[C@@H]2[C@](C)(CO)[C@H](O)CC[C@@]2(C)[C@@H]1C/C=C1/C(=O)OC[C@H]1O [andrographolide]	significantly greater intensity					
CC[C@@]1(O)C(=O)OCc2c1cc1n(c2=O)Cc2cc3ccccc3nc2-1 [camptothecin]	significantly greater intensity					
COc1cc([C@@H]2c3cc4c(cc3[C@@H](O[C@@H]3O[C@@H]5CO[C@@H](C)O[C@H]5[C@H](O)[C@H]3O)[C@H]3COC(=O)[C@H]23)OCO4)cc(OC)c1O [etoposide]	significantly greater intensity	2.1×10^5	4.7×10^5	44%	reveals multiple spectral features	significantly greater density of adherent cells was observed for the cells grown in the drug-free medium
